Data on 13 compounds can be found in ChEMBL document CHEMBL2016536, “New triazole derivatives as antifungal agents: synthesis via click reaction, in vitro evaluation and molecular docking studies” (2012).

Values after ≈ are worked out from the molar mass of the structure shown.

What all share (assay type): functional
Assay [1] deals with Candida albicans. Kind of assay: Antifungal activity against Candida albicans SC5314 after 24 hrs by microbroth dilution method. The note with it: SC5314, 24 h. In general terms: Dilution methods test growth across graded concentrations, often in twofold steps.
For assay [2], the system named is Kluyveromyces marxianus. Kind of assay: Antifungal activity against Candida kefyr by microbroth dilution method.
Assay [3] has as its system Aspergillus fumigatus. Nature of the assay: Antifungal activity against Aspergillus fumigatus by microbroth dilution method.
For assay [4], the system named is Candida tropicalis. Nature of the assay: Antifungal activity against Candida tropicalis by microbroth dilution method.
Assay [5] has as its system Candida parapsilosis. Nature of the assay: Antifungal activity against Candida parapsilosis by microbroth dilution method. The note with it: Lodderomyces parapsilosis.
The test system of assay [6] is Cryptococcus neoformans. Nature of the assay: Antifungal activity against Cryptococcus neoformans after 72 hrs by microbroth dilution method.
In assay [7] the test system is Candida albicans. Nature of the assay: Antifungal activity against Candida albicans Y0109 after 24 hrs by microbroth dilution method. The note with it: Y0109, 24 h.
In assay [8] the test system is Trichophyton rubrum. Kind of assay: Antifungal activity against Trichophyton rubrum by microbroth dilution method.

In the case of `OC(Cc1cn(Cc2cc(Cl)cc(Cl)c2)nn1)(Cn1cncn1)c1ccc(F)cc1F` (centres undefined), the MIC80 amounted to 0.25 µg/mL (≈ 0.537 µM) in assay [1]; 0.5 µg/mL (≈ 1.07 µM) in assay [2]; 32 µg/mL (≈ 68.8 µM) in assay [3]; 0.25 µg/mL (≈ 0.537 µM) in assay [4]; 0.25 µg/mL (≈ 0.537 µM) in assay [5]; 1 µg/mL (≈ 2.15 µM) in assay [6]. Moreover, the MIC80 in assay [7] is 0.125 µg/mL (≈ 0.269 µM); in assay [8], less than 0.125 µg/mL.

For the compound `COc1ccc(Cn2cc(CC(O)(Cn3cncn3)c3ccc(F)cc3F)nn2)cc1OC` (centres undefined), the MIC80 in assay [1] was determined as 0.0625 µg/mL (≈ 0.137 µM); in assay [2] it was 0.0625 µg/mL (≈ 0.137 µM); in assay [3], 2 µg/mL (≈ 4.38 µM); in assay [4], 0.125 µg/mL (≈ 0.274 µM); in assay [5], 0.0625 µg/mL (≈ 0.137 µM); in assay [6], 0.0625 µg/mL (≈ 0.137 µM). Also, the MIC80 in assay [7] is 0.0156 µg/mL (≈ 0.0342 µM); in assay [8], 0.0625 µg/mL (≈ 0.137 µM).

`OC(Cc1cn(Cc2ccccc2F)nn1)(Cn1cncn1)c1ccc(F)cc1F` (centres undefined): the MIC80 came to 0.0625 µg/mL (≈ 0.151 µM) in assay [1]; 0.0625 µg/mL (≈ 0.151 µM) in assay [2]; 16 µg/mL (≈ 38.6 µM) in assay [3]; 0.0625 µg/mL (≈ 0.151 µM) in assay [4]; 0.125 µg/mL (≈ 0.302 µM) in assay [5]; 0.125 µg/mL (≈ 0.302 µM) in assay [6]. In addition, the MIC80 in assay [7] turned out to be 0.0625 µg/mL (≈ 0.151 µM); in assay [8] it was 0.125 µg/mL (≈ 0.302 µM).

With `OC(Cc1cn(Cc2cccc(Cl)c2)nn1)(Cn1cncn1)c1ccc(F)cc1F` (centres undefined), the MIC80 was less than 0.125 µg/mL in assay [1]; 0.0625 µg/mL (≈ 0.145 µM) in assay [2]; 8 µg/mL (≈ 18.6 µM) in assay [3]; 0.25 µg/mL (≈ 0.58 µM) in assay [4]; 0.125 µg/mL (≈ 0.29 µM) in assay [5]; 0.5 µg/mL (≈ 1.16 µM) in assay [6]. Further, the MIC80 in assay [7] was 0.0625 µg/mL (≈ 0.145 µM); in assay [8] it was 0.125 µg/mL (≈ 0.29 µM).

In the case of `OC(Cc1cn(Cc2ccc(Cl)c(Cl)c2)nn1)(Cn1cncn1)c1ccc(F)cc1F` (centres undefined), the MIC80 in assay [1] is 0.25 µg/mL (≈ 0.537 µM); in assay [2], 0.25 µg/mL (≈ 0.537 µM); in assay [3], 32 µg/mL (≈ 68.8 µM); in assay [4], 0.125 µg/mL (≈ 0.269 µM); in assay [5], 0.125 µg/mL (≈ 0.269 µM); in assay [6], 1 µg/mL (≈ 2.15 µM). The MIC80 in assay [7] is 0.125 µg/mL (≈ 0.269 µM); in assay [8] it was 0.25 µg/mL (≈ 0.537 µM).

For the compound `CC(C)(C)c1ccc(Cn2cc(CC(O)(Cn3cncn3)c3ccc(F)cc3F)nn2)cc1` (centres undefined), the MIC80 in assay [1] was 0.0625 µg/mL (≈ 0.138 µM); in assay [2], 0.0625 µg/mL (≈ 0.138 µM); in assay [3], 4 µg/mL (≈ 8.84 µM); in assay [4], 0.0625 µg/mL (≈ 0.138 µM); in assay [5], 0.125 µg/mL (≈ 0.276 µM); in assay [6], less than 0.125 µg/mL. The MIC80 in assay [7] and in assay [8] was 0.0625 µg/mL (≈ 0.138 µM) throughout.

Consider `CC(=O)N1CCN(c2ccc(OCC3COC(Cn4ccnc4)(c4ccc(Cl)cc4Cl)O3)cc2)CC1` (centres undefined) [KETOCONAZOLE], for which the MIC80 in assay [1] worked out at 0.0625 µg/mL (≈ 0.118 µM); in assay [2] it was 0.0625 µg/mL (≈ 0.118 µM); in assay [3], 0.0156 µg/mL (≈ 0.0294 µM); in assay [4] it was 0.0039 µg/mL (≈ 0.00734 µM); in assay [5] it was 0.0039 µg/mL (≈ 0.00734 µM); in assay [6] it was 0.0156 µg/mL (≈ 0.0294 µM). Moreover, the MIC80 came to 0.0625 µg/mL (≈ 0.118 µM) in assay [7] and 0.0156 µg/mL (≈ 0.0294 µM) in assay [8].

In the case of `OC(Cc1cn(Cc2ccc(Br)cc2)nn1)(Cn1cncn1)c1ccc(F)cc1F` (centres undefined), the MIC80 in assay [1] stood at 0.0625 µg/mL (≈ 0.131 µM); in assay [2] it was 0.0625 µg/mL (≈ 0.131 µM); in assay [3], 8 µg/mL (≈ 16.8 µM); in assay [4], 0.25 µg/mL (≈ 0.526 µM); in assay [5], 0.125 µg/mL (≈ 0.263 µM); in assay [6], 0.25 µg/mL (≈ 0.526 µM). Also, the MIC80 in assay [7] came out at 0.0625 µg/mL (≈ 0.131 µM); in assay [8], 0.125 µg/mL (≈ 0.263 µM).

In the case of `OC(Cc1cn(Cc2cccc(F)c2)nn1)(Cn1cncn1)c1ccc(F)cc1F` (centres undefined), the MIC80 in assay [1] is less than 0.125 µg/mL; in assay [2] it was 0.0625 µg/mL (≈ 0.151 µM); in assay [3], 32 µg/mL (≈ 77.2 µM); in assay [4], 0.25 µg/mL (≈ 0.603 µM); in assay [5], 0.125 µg/mL (≈ 0.302 µM); in assay [6], 0.25 µg/mL (≈ 0.603 µM). Further, the MIC80 in assay [7] was 0.0625 µg/mL (≈ 0.151 µM); in assay [8], 0.25 µg/mL (≈ 0.603 µM).

As to `OC(Cc1cn(Cc2ccccc2Cl)nn1)(Cn1cncn1)c1ccc(F)cc1F` (centres undefined), the MIC80 in assay [1] was 0.0625 µg/mL (≈ 0.145 µM); in assay [2] it was 0.125 µg/mL (≈ 0.29 µM); in assay [3] it was 16 µg/mL (≈ 37.1 µM); in assay [4] it was 0.0625 µg/mL (≈ 0.145 µM); in assay [5] it was 0.0625 µg/mL (≈ 0.145 µM); in assay [6], 0.25 µg/mL (≈ 0.58 µM). Further, the MIC80 in assay [7] was 0.0625 µg/mL (≈ 0.145 µM); in assay [8], 0.25 µg/mL (≈ 0.58 µM).

Turning to `O=[N+]([O-])c1cccc(Cn2cc(CC(O)(Cn3cncn3)c3ccc(F)cc3F)nn2)c1` (centres undefined), the MIC80 in assay [1] was less than 0.125 µg/mL; in assay [2], 0.0625 µg/mL (≈ 0.142 µM); in assay [3] it was 32 µg/mL (≈ 72.5 µM); in assay [4] it was 0.125 µg/mL (≈ 0.283 µM); in assay [5], less than 0.25 µg/mL; in assay [6], 0.5 µg/mL (≈ 1.13 µM). The MIC80 in assay [7] was determined as 0.0625 µg/mL (≈ 0.142 µM); in assay [8], 0.25 µg/mL (≈ 0.566 µM).

For the compound `OC(Cc1cn(Cc2ccccc2)nn1)(Cn1cncn1)c1ccc(F)cc1F` (centres undefined), the MIC80 in assay [1] was 0.125 µg/mL (≈ 0.315 µM); in assay [2], less than 0.125 µg/mL; in assay [3] it was 16 µg/mL (≈ 40.4 µM); in assay [4], 0.0625 µg/mL (≈ 0.158 µM); in assay [5], 0.0625 µg/mL (≈ 0.158 µM); in assay [6], less than 0.25 µg/mL. The MIC80 in assay [7] was 0.0625 µg/mL (≈ 0.158 µM); in assay [8] it was 0.25 µg/mL (≈ 0.631 µM).

On to `O=[N+]([O-])c1ccccc1Cn1cc(CC(O)(Cn2cncn2)c2ccc(F)cc2F)nn1` (centres undefined), for which the MIC80 in assay [1] was less than 0.125 µg/mL; in assay [2] it was 0.0625 µg/mL (≈ 0.142 µM); in assay [3], 32 µg/mL (≈ 72.5 µM); in assay [4] it was 0.125 µg/mL (≈ 0.283 µM); in assay [5], less than 0.25 µg/mL; in assay [6], 0.5 µg/mL (≈ 1.13 µM). For the same compound, the MIC80 in assay [7] was 0.0625 µg/mL (≈ 0.142 µM); in assay [8], 0.25 µg/mL (≈ 0.566 µM).

What is called MIC80 is the lowest concentration that inhibits either 80% of growth or 80% of the strains tested, depending on the study. Low readings indicate greater potency, high ones weaker potency.
